Paper PMC8728392, “Synthesis, Anticancer Assessment, and Molecular Docking of Novel Chalcone-Thienopyrimidine Derivatives in HepG2 and MCF-7 Cell Lines” (Oxidative Medicine and Cellular Longevity, 2021)

Key:
[1] = test system: human liver cancer cell line (HepG2); assay: MTT assay, cytotoxicity; format: cell-based; details: HepG2; for survival percentage (mean ± SEM): 24 hours
Description: (§1) Cancer cell lines were manipulated according to the method described by Sigounas et al.. In this method, the cell lines were grown as adherent monolayers in T75 flasks with Dulbecco's modified Eagle's medium (DMEM) supplemented with 10% Fetal Bovine Serum (FBS), 2 mM L-glutamine, and 1% streptomycin/penicillin. The cells were left to grow in a CO2 incubator at 37°C, 5% CO2, and 95% humidity until their confluence.
(§2) The 3-[4,5-dimethylthiazol-2-yl]-2,5-diphenyltetrazolium bromide (MTT) colorimetric assay was used to examine the sensitivity of cells to tested compounds (as anticancer drugs), as previously described. This assay depends on the production of a purple formazan derivative from the yellow tetrazolium bromide (MTT) by mitochondrial succinate dehydrogenase in viable cells. The percentage of cell survival was calculated as follows: (1) Percentage of survival=O.D.treated cells/O.D.control cells×100.
(§3) For preliminary screening of the cytotoxicity of synthesized compounds 3a-g, cells exposed to DMSO were used as a control. Plotting the relationship between the survival score and the compound concentration and calculating the IC50 (the concentration required to inhibit cell viability by 50%) were performed for each test compound according to Li et al. in comparison with the reference standard anticancer agent, 5-FU.
(§4) The 3-[4,5-dimethylthiazol-2-yl]-2,5-diphenyltetrazolium bromide (MTT) colorimetric assay was used to examine the sensitivity of cells to tested compounds (as anticancer drugs), as previously described by Hussein et al. (2017). This assay depend on the production of a purple formazan derivative from the yellow tetrazolium bromide (MTT) by mitochondrial succinate dehydrogenase in viable cells. Briefly, after harvesting the cells with 0.25% trypsin, the cell lines were suspended in DMEM. Cells were seeded in 96-well microtiter plates at a concentration of 5×10^4 cell/well in a fresh medium and left to attach to the plates for 24 h before treatment with the tested compounds 3a-g. Test compounds were dissolved in dimethyl sulfoxide (DMSO). After 24 hours, cells were incubated with the appropriate concentration ranges of compounds, the wells were diluted to […] with fresh medium and incubation was continued for 24 hours. Three wells were used for each concentration. After 24 hours of treatment, 20 μl of MTT solution (5mg/ml) was added and subsequently the plates were further incubated for 4 hours to allow the viable cells to biotransform the yellow-colored MTT into purple formazan crystals. The optical density (O.D.) of each well was measured spectrophotometrically at […] with an enzyme-linked immunosorbent assay (ELISA) microplate reader (BioTek, EL-800, USA). The percentage of cell survival was calculated as follows: […]

[2] = test system: human breast cancer cell line (MCF-7); assay: MTT assay, cytotoxicity; format: cell-based; details: MCF-7; for survival percentage (mean ± SEM): 24 hours
Description: as §1, §2, §3, §4

SMILES: CCOCc1nc2sc3c(c2c(=O)n1CC(=O)Nc1ccc(C(=O)/C=C\c2cccc([N+](=O)[O-])c2)cc1)CCN(C(=O)OCC)C3 [Compound 3f, Ethyl (Z)-2-(Ethoxymethyl)-3-(2-((4-(3-(3-nitrophenyl)acryloyl)phenyl)amino)-2-oxoethyl)-4-oxo-3,5,6,8-tetrahydropyrido[4′,3′:4,5]thieno[2,3-d]pyrimidine-7(4H)-carboxylate]
- cytotoxic activity (in words) [1]: lowest cytotoxic activity
- survival percentage (mean ± SEM) ([1]; 4.8828125 μg/ml): 149.7 ± 0.200%
- survival percentage (mean ± SEM) ([1]; 9.765625 μg/ml): 149.1 ± 0.106%
- survival percentage (mean ± SEM) ([1]; 19.53125 μg/ml): 144.7 ± 0.140%
- survival percentage (mean ± SEM) ([1]; 39.0625 μg/ml): 119.1 ± 0.122%
- survival percentage (mean ± SEM) ([1]; 78.125 μg/ml): 115.9 ± 0.157%
- survival percentage (mean ± SEM) ([1]; 156.25 μg/ml): 112.0 ± 0.460%
- survival percentage (mean ± SEM) ([1]; 312.5 μg/ml): 77.8 ± 0.071%
- survival percentage (mean ± SEM) ([1]; 625 μg/ml): 15.3 ± 0.005%
- survival percentage (mean ± SEM) ([1]; 1250 μg/ml): 12.6 ± 0.019%
- survival percentage (mean ± SEM) ([1]; 2500 μg/ml): 11.7 ± 0.009%
- survival percentage (mean ± SEM) ([1]; 5000 μg/ml): 11.6 ± 0.002%
- survival percentage (mean ± SEM) ([1]; 10000 μg/ml): 10.7 ± 0.004%
- cytotoxic activity (in words) [2]: lowest cytotoxic activity
- survival percentage (mean ± SEM) ([2]; 4.8828125 μg/ml): 149.7 ± 0.082%
- survival percentage (mean ± SEM) ([2]; 9.765625 μg/ml): 132.2 ± 0.214%
- survival percentage (mean ± SEM) ([2]; 19.53125 μg/ml): 127.7 ± 0.180%
- survival percentage (mean ± SEM) ([2]; 39.0625 μg/ml): 122.6 ± 0.121%
- survival percentage (mean ± SEM) ([2]; 78.125 μg/ml): 120.2 ± 0.150%
- survival percentage (mean ± SEM) ([2]; 156.25 μg/ml): 119.7 ± 0.182%
- survival percentage (mean ± SEM) ([2]; 312.5 μg/ml): 92.0 ± 0.141%
- survival percentage (mean ± SEM) ([2]; 625 μg/ml): 67.1 ± 0.086%
- survival percentage (mean ± SEM) ([2]; 1250 μg/ml): 47.5 ± 0.181%
- survival percentage (mean ± SEM) ([2]; 2500 μg/ml): 6.2 ± 0.004%
- survival percentage (mean ± SEM) ([2]; 5000 μg/ml): 5.1 ± 0.003%
- survival percentage (mean ± SEM) ([2]; 10000 μg/ml): 4.6 ± 0.002%
- melting point: 178 to 179 °C
